The nature of data set [1]: Cytotoxicity evaluation (Cell Titer 96 AQueous One Solution Cell Proliferation Assay). The data set is classed as cell-based. The settings on record: human; GS4.1 cells, cellular viability. On the procedure: For cytotoxicity evaluation, GS4.1 cells were treated with compounds as described above and cellular viability was monitored using the Cell Titer 96 AQueous One Solution Cell Proliferation Assay (Promega). CC50 values were determined from the % cytotoxicity versus concentration data with Tecan Magellan software as described above.

The next data set addresses T1, HCV NS3-NS4A protease (Hepatitis C virus genotype 1b, UniProt P26663).
T1 construct: made in house
In words: HCV Protease Assay (SensoLyte 620 HCV Protease Assay kit). The data set is classed as biochemical. The following applies: 1.2 nM HCV NS3-NS4A protease, 60 min at room temperature, 5% DMSO. On the procedure:
General procedure: Measurement of the inhibitory effect of compounds on HCV protease activity was performed with the SensoLyte™ 620 HCV Protease Assay kit from AnaSpec, Inc. (San Jose, Calif.) under conditions described by the supplier using 1.2 nM HCV NS3-NS4A protease, which was obtained according to Taremi et al. (Protein Science, 1998, 7, 2143-2149). The compounds were tested at a variety of concentrations in assay buffer containing a final DMSO concentration of 5%. Reactions were allowed to proceed for 60 min at room temperature and fluorescence measurements were recorded with a Tecan Infinity Spectrofluorimeter. The IC50 values were determined from the percent inhibition versus concentration data using a sigmoidal non-linear regression analysis based on four parameters with Tecan Magellan software.

Data set [2] deals with Huh-7 cells containing HCV Con1 subgenomic replicon (GS4.1 cells). The experiment in a line: HCV Replicon Assay (NS4A ELISA). Type of data set: cell-based. The following applies: Hepatitis C virus, Huh-7, 72 hr, NS4A protein by ELISA. On the procedure: General procedure: Huh-7 cells containing HCV Con1 subgenomic replicon (GS4.1 cells) were grown in Dulbecco's Modified Eagle Medium (DMEM) supplemented with 10% fetal bovine serum (FBS), 2 mM L-glutamine, 110 mg/L sodium pyruvate, 1× non-essential amino acids, 100 U/mL penicillin-streptomycin, and 0.5 mg/mL G418 (Invitrogen). For dose-response testing, the cells were seeded in 96-well plates at 7.5×10^3 cells/well in a volume of 50 μL, and incubated at 37° C./5% CO2. Three hours after plating, 50 μL of ten 2-fold serial dilutions of compounds (highest concentration, 75 μM) were added, and cell cultures were incubated at 37° C./5% CO2 in the presence of 0.5% DMSO. Alternatively, compounds were tested at a single concentration of 15 μM. In all cases, Huh-7 cells lacking the HCV replicon served as negative control. The cells were incubated in the presence of compounds for 72 hr after which they were monitored for expression of the NS4A protein by enzyme-linked immunosorbent assay (ELISA). For this, the plates were then fixed for 1 min with acetone/methanol (1:1, v/v), washed twice with phosphate-buffered saline (PBS), 0.1% Tween 20, blocked for 1 hr at room temperature with TNE buffer containing 10% FBS and then incubated for 2 hr at 37° C. with the anti-NS4A mouse monoclonal antibody A-236 (ViroGen) diluted in the same buffer. After washing three times with PBS, 0.1% Tween 20, the cells were incubated 1 hr at 37° C. with anti-mouse immunoglobulin G-peroxidase conjugate in TNE, 10% FBS. After washing as described above, the reaction was developed with O-phenylenediamine (Zymed). The reaction was stopped after 30 min with 2 NH2SO4, and absorbance was read at 492 nm using Sunrise Tecan spectrophotometer. EC50 values were determined from the % inhibition versus concentration data using a sigmoidal non-linear regression analysis based on four parameters with Tecan Magellan software. When screening at a single concentration, the results were expressed as % inhibition at 15 μM.

Our source for the CC50, IC50 and EC50 values is patent publication US8003659B2, “Macrocyclic serine protease inhibitors” (Indenix Pharmaceuticals, Inc., priority 2008, dated 2011).

T1 sequence (P26663 1027-1208): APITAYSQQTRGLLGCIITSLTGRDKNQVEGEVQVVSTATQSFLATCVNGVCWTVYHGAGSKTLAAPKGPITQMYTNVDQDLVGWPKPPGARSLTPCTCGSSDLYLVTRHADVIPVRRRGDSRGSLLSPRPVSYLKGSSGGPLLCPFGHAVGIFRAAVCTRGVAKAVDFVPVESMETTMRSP

For orientation: CC50 means the concentration that lowers cell viability or growth by half. One may read the IC50 as the concentration at which inhibition is half-maximal. A higher IC50 goes with lower potency. As a reminder, the EC50 is the concentration giving half of the maximal effect. Higher therefore signals a less potent agent. The compound `COc1ccc2c(O[C@H]3C[C@H]4C(=O)N(C)CCCC/C=C\[C@@H]5C[C@@]5(C(=O)NS(C)(=O)=O)NC(=O)N4C3)cc(-c3nc(C(C)C)cs3)nc2c1C` [Compound 63b] gave a CC50 in data set [1] greater than 75 µM. Further, the half-maximal inhibitory concentration (IC50) on HCV NS3-NS4A protease is less than 1 µM. The compound also gave an EC50 in data set [2] of 1 to 10 µM.
For `COc1ccc2c(O[C@H]3C[C@H]4C(=O)N(C)CCCC/C=C\[C@@H]5C[C@@]5(C(=O)NS(=O)(=O)C5(C)CC5)NC(=O)N4C3)cc(-c3nc(C(F)(F)F)cs3)nc2c1Cl` [Compound 68d, (Z)-(4R,6S,15S,17S)-[17-[8-chloro-7-methoxy-2-(4-trifluoromethythiazol-2-yl)quinolin-4-yloxy]-13-N-methyl-2,14-dioxo-1,3,13-triazatricyclo[13.3.0.0]octadec-7-en-4-yl]carbonyl(1-methylcyclopropyl)sulfonamide], in that order: greater than 75 µM, less than 1 µM and less than 1 µM.
The corresponding values for `COc1ccc2c(O[C@H]3C[C@H]4C(=O)N(C)CCCC/C=C\[C@@H]5C[C@@]5(C(=O)NS(=O)(=O)C5CC5)NC(=O)N4C3)cc(-c3nc(C(F)(F)F)cs3)nc2c1Cl` [Compound 69d, (Z)-(4R,6S,15S,17S)-[17-[8-chloro-7-methoxy-2-(4-trifluoromethythiazol-2-yl)quinolin-4-yloxy]-13-N-methyl-2,14-dioxo-1,3,13-triazatricyclo[13.3.0.0]octadec-7-en-4-yl]carbonyl(cyclopropyl)sulfonamide] are 10 to 75 µM, less than 1 µM and less than 1 µM.
For `C#CC1(S(=O)(=O)NC(=O)[C@@]23C[C@H]2/C=C\CCCCN(C)C(=O)[C@@H]2C[C@H](Oc4cc(-c5nc(C(C)C)cs5)nc5c(C)c(OC)ccc45)CN2C(=O)N3)CC1` [Compound 83b, (Z)-(4R,6S,15S,17S)-[17-[7-methoxy-8-methyl-2-(4-isopropylthiazol-2-yl)quinolin-4-yloxy]-13-N-methyl-2,14-dioxo-1,3,13-triazatricyclo[13.3.0.0]octadec-7-en-4-yl]carbonyl(1-ethynylcyclopropyl)sulfonamide], in that order: greater than 75 µM, less than 1 µM and less than 1 µM.
Turning to `COc1ccc2c(O[C@H]3C[C@H]4C(=O)N(C)CCCC/C=C\[C@@H]5C[C@@]5(C(=O)NS(=O)(=O)C5(C)CC5)NC(=O)N4C3)cc(-n3ccc(C(F)(F)F)n3)nc2c1Cl` [Compound 91a, (Z)-(4R,6S,15S,17S)-[17-[8-chloro-7-methoxy-2-(3-trifluoromethyl-1H-pyrazol-1-yl)quinolin-4-yloxy]-13-N-methyl-2,14-dioxo-1,3,13-triazatricyclo[13.3.0.0]octadec-7-ene-4-yl]carbonyl(1-methylcyclopropyl)sulfonamide], in data set [1], the CC50 was greater than 75 µM. In addition, the IC50 at HCV NS3-NS4A protease was less than 1 µM. Further, the EC50 in data set [2] was less than 1 µM.
Regarding `COc1ccc2c(O[C@H]3C[C@H]4C(=O)N(C)CCCC/C=C\[C@@H]5C[C@@]5(C(=O)NS(=O)(=O)C5(C)CC5)NC(=O)N4C3)cc(-n3ccc(C(C)C)n3)nc2c1C` [Compound 91b, (Z)-(4R,6S,15S,17S)-[17-[8-methyl-7-methoxy-2-(3-isopropyl-1H-pyrazol-1-yl)quinolin-4-yloxy]-13-N-methyl-2,14-dioxo-1,3,13-triazatricyclo[13.3.0.0]octadec-7-ene-4-yl]carbonyl(1-methylcyclopropyl)sulfonamide], in data set [1], the half-maximal cytotoxic concentration (CC50) was in the range of 10 to 75 µM. Besides, the IC50 against HCV NS3-NS4A protease is less than 1 µM. The compound also gave an EC50 in data set [2] of less than 1 µM.
In data set [1], `COc1ccc2c(O[C@H]3C[C@H]4C(=O)N(C)CCCC/C=C\[C@@H]5C[C@@]5(C(=O)NS(=O)(=O)C5(C)CC5)NC(=O)N4C3)cc(-n3ccc(C(F)(F)F)n3)nc2c1C` [Compound 91c, (Z)-(4R,6S,15S,17S)-[17-[7-methoxy-8-methyl-2-(3-trifluoromethyl-1H-pyrazol-1-yl)quinolin-4-yloxy]-13-N-methyl-2,14-dioxo-1,3,13-triazatricyclo[13.3.0.0]octadec-7-ene-4-yl]carbonyl(1-methylcyclopropyl)sulfonamide] yielded a 50% cytotoxic concentration (CC50) greater than 75 µM. Further, on HCV NS3-NS4A protease, the IC50 is less than 1 µM. In addition, the EC50 in data set [2] is less than 1 µM.
For `COc1ccc2c(O[C@H]3C[C@H]4C(=O)N(C)CCCC/C=C\[C@@H]5C[C@@]5(C(=O)NS(=O)(=O)C5(C)CC5)NC(=O)N4C3)cc(-n3ccc(C(C)C)n3)nc2c1Cl` [Compound 91d, (Z)-(4R,6S,15S,17S)-[17-[8-chloro-7-methoxy-2-(3-isopropyl-1H-pyrazol-1-yl)quinolin-4-yloxy]-13-N-methyl-2,14-dioxo-1,3,13-triazatricyclo[13.3.0.0]octadec-7-ene-4-yl]carbonyl(1-methylcyclopropyl)sulfonamide], in data set [1], the CC50 is greater than 75 µM. On HCV NS3-NS4A protease, this compound registered an IC50 of less than 1 µM. In data set [2], this compound came in with a concentration for a half-maximal effect (EC50) of less than 1 µM.
Compound `COc1ccc2c(O[C@H]3C[C@H]4C(=O)N(C)CCCC/C=C\[C@@H]5C[C@@]5(C(=O)NS(=O)(=O)C5CC5)NC(=O)N4C3)cc(-n3ccc(C(C)C)n3)nc2c1C` [Compound 91f, (Z)-(4R,6S,15S,17S)-[17-[8-methyl-7-methoxy-2-(3-isopropyl-1H-pyrazol-1-yl)quinolin-4-yloxy]-13-N-methyl-2,14-dioxo-1,3,13-triazatricyclo[13.3.0.0]octadec-7-ene-4-yl]carbonyl(cyclopropyl)sulfonamide] yielded a CC50 in data set [1] greater than 75 µM. The IC50 against HCV NS3-NS4A protease is less than 1 µM. Besides, the EC50 in data set [2] is less than 1 µM.
`COc1ccc2c(O[C@H]3C[C@H]4C(=O)N(C)CCCC/C=C\[C@@H]5C[C@@]5(C(=O)NS(=O)(=O)C5CC5)NC(=O)N4C3)cc(-n3ccc(C(F)(F)F)n3)nc2c1C` [Compound 91g, (Z)-(4R,6S,15S,17S)-[17-[7-methoxy-8-methyl-2-(3-trifluoromethyl-1H-pyrazol-1-yl)quinolin-4-yloxy]-13-N-methyl-2,14-dioxo-1,3,13-triazatricyclo[13.3.0.0]octadec-7-ene-4-yl]carbonyl(cyclopropyl)sulfonamide] yielded a CC50 in data set [1] greater than 75 µM. For the same compound, the IC50 against HCV NS3-NS4A protease was less than 1 µM. Moreover, in data set [2], the EC50 is less than 1 µM.
In turn, `COc1ccc2c(O[C@H]3C[C@H]4C(=O)N(C)CCCC/C=C\[C@@H]5C[C@@]5(C(=O)NS(=O)(=O)C5(C)CC5)NC(=O)N4C3)cc(-c3cc(C(C)C)on3)nc2c1Cl` [Compound 96d, (Z)-(4R,6S,15S,17S)-[17-[8-chloro-7-methoxy-2-(5-isopropylisoxazol-3-yl)quinolin-4-yloxy]-13-N-methyl-2,14-dioxo-1,3,13-triazatricyclo[13.3.0.0]octadec-7-ene-4-yl]carbonyl(1-methylcyclopropyl)sulfonamide] displayed a CC50 in data set [1] greater than 75 µM. This compound came in with an IC50 against HCV NS3-NS4A protease of less than 1 µM. In data set [2], the EC50 lay within 1 to 10 µM.
The corresponding values for `COc1ccc2c(O[C@H]3C[C@H]4C(=O)N(C)CCCC/C=C\[C@@H]5C[C@@]5(C(=O)NS(=O)(=O)C5(C)CC5)NC(=O)N4C3)cc(-c3csc(C(C)C)n3)nc2c1Cl` [Compound 101d, (Z)-(4R,6S,15S,17S)-[17-[8-chloro-7-methoxy-2-(2-isopropythiazol-4-yl)quinolin-4-yloxy]-13-N-methyl-2,14-dioxo-1,3,13-triazatricyclo[13.3.0.0]octadec-7-ene-4-yl]carbonyl(1-methylcyclopropyl)sulfonamide] are greater than 75 µM, less than 1 µM and less than 1 µM.
The corresponding values for `COc1ccc2c(O[C@H]3C[C@H]4C(=O)N(C)CCCC/C=C\[C@@H]5C[C@@]5(C(=O)NS(=O)(=O)C5(C)CC5)NC(=O)N4C3)nc(-c3nc(C(C)C)cs3)nc2c1Cl` [Compound 110d, (Z)-(4R,6S,15S,17S)-[17-[8-chloro-7-methoxy-2-(4-isopropylthiazol-2-yl)quinazolin-4-yloxy]-13-N-methyl-2,14-dioxo-1,3,13-triazatricyclo[13.3.0.0]octadec-7-ene-4-yl]carbonyl(1-methylcyclopropyl)sulfonamide] are greater than 75 µM, less than 1 µM and less than 1 µM.
